From patent US12653899B2, “Multi-targeted, tunable, sustained delivery of payloads to charged avascular tissues” (Massachusetts Institute of Technology, priority 2019, dated 2026)
“Also recorded” adds a separate entry of the source.

Columns and labels:
[1] = tested on: human ankle cartilage explants treated with IL-1β; experiment: Cumulative sGAG loss and final sGAG content (DMMB) in IL-1β challenge, human ankle cartilage; type: cell-based; settings: 100 pg/ml IL-1β; for cumulative sGAG loss compared to the untreated control: 10-day time point
Procedure: Preliminary dose response experiments were performed to test the effects of human IL-1β (PeproTech, Rocky Hill, NJ) on human ankle cartilage. Ankle cartilage explants from two different donors (equilibrated in culture medium post-harvest) were cultured in serum-free low glucose medium (same composition as equilibration medium) and treated with continuous IL-1β doses ranging from 10 pg/ml to 1 ng/ml for 8 days. The experiments also included groups of explants that were treated with 300 ng/ml free IGF-1 at each dose level of IL-1β. Based on the results of these experiments, 100 pg/ml IL-1β was chosen as the dose used for the fusion protein dose response experiments. In these experiments, ankle and knee cartilage explants (equilibrated in culture medium post-harvest) were treated continuously with IL-1β and received single doses of fusion proteins (ranging from 39.2 nM to 2 μM) at the start of the experiments. Media changes with IL-1β but without fusion proteins were performed once every 2 to 3 days. An untreated control group, a control with continuous IL-1β alone, and a control with IL-1β combined with continuous free IGF-1 (300 ng/ml or 39.2 nM) were included. Experiments were terminated at 7-day and 10-day timepoints, and the sGAG biosynthesis rate, metabolic rate, sGAG loss to culture medium and sGAG content of the explants were measured.
The metabolic rate of cartilage explants was measured using the Alamar Blue assay (ThermoFisher). Cartilage explants were incubated for 3 hours in a 1× solution of Alamar Blue dissolved in culture medium. At the end of the incubation period, the absorbance of the medium at 570 nm and 600 nm was measured using a microplate reader (Synergy H1 Hybrid Multi-Mode Microplate Reader, BioTek). These readings were used to calculate the percentage reduction of Alamar Blue, which is directly proportional to the explant metabolic rate. These values were first normalized by individual explant weights. Following this, the weight-normalized readings for the treatment groups were normalized by the weight-normalized mean value for the untreated controls. To measure the chondrocyte biosynthesis rate of sulfated glycosaminoglycans (sGAGs), cartilage explants were cultured in the presence of 10 μCi/mL 35S-sulfate radiolabel during the final two days of each experiment. […] To calculate the cumulative loss of GAGs from the explants, the amount of sGAG lost to the medium and that left behind in the explants at the end of the experiment were measured using the dimethylene blue (DMMB) dye binding assay (Farndale et al., Biochim Biophys Acta. 883(2):173-177 (1986)).

[2] = tested on: human ankle cartilage explants; experiment: Quantitative uptake of fusion proteins in human ankle cartilage (uptake ratio); type: in vitro ADME; settings: 1 μM in PBS + 1% BSA
Procedure: Cartilage explants were incubated in 250 μL of 1 μM solutions of different fusion proteins dissolved in 1×PBS+1% BSA for either 36 hours (FIG. 4A) or for 108 hours (FIG. 4B) (4.5 days). A group with free +9 GFP dissolved in 1×PBS+1% BSA (1 μM concentration) was included as a control for each of these two time points. An additional untreated control was included in these experiments. Cartilage explants were incubated in plain 1×PBS+1% BSA to account for and to correct for any autofluorescence effects. At the end of the incubation in the 1×PBS+1% BSA: The explants were transferred to a 10×PBS+1% BSA bath for 48 hours. The purpose of this was to desorb the GFPs taken up by the explants. The amount of GFPs left behind in the […] bath was quantified through fluorescence measurements. The desorption step in 10×PBS+1% BSA was followed by a second desorption step using fresh 10×PBS+1% BSA just to ensure any GFPs left in the explant after the 1st desorption come out. At the end of each desorption step, the fluorescence of the 10×PBS+1% BSA bath was measured. After the 2nd desorption step, the explants were digested in Proteinase K and their fluorescence was measured. The uptake ratio for the 36 hour and 108 hour experiments was calculated as (FIG. 4C): […]
Cartilage explants that had been equilibrated in culture medium post-harvest were transferred to sterile PBS and allowed to equilibrate for 1 hour before the start of the experiments. Sterile PBS solutions containing 1% bovine serum albumin (BSA) were prepared. Following this, 1 μM solutions of (+9GFP), (+9GFP)-(GGGGS)4-(IGF-1) (SEQ ID NO: 7), (+9GFP)-(EAAAK)3-(IGF-1) (SEQ ID NO: 8) and (+9GFP)-(GGGGS)3-(IGF-1) (SEQ ID NO: 9) were prepared. The BSA was included in the PBS to minimize loss of GFPs in the solution caused by non-specific binding to the plasticware. […] In contrast, use of polypropylene with 1% BSA enabled complete recovery of fluorescence.
At the end of the incubation period, cartilage explants were washed with PBS and transferred to a solution of 10×PBS+1% BSA for desorption. At the same time, the fluorescence of the absorption bath was measured using a plate reader (Synergy H1, Biotek Instruments Inc.) (excitation: 485 nm, emission: 528 nm). […] At the end of the desorption in 10×PBS+1% BSA, cartilage explants were weighed, and the fluorescence of the desorption bath was measured. This fluorescence measurement was used with a standard curve and the explant wet weights to calculate the concentration of GFP inside cartilage explants (mol/mg wet weight). The uptake ratio was calculated as the ratio of GFP concentration inside cartilage (mol/mg wet weight) to the final absorption bath concentration (mol/mL).

[3] = tested on: human ankle cartilage explants treated with IL-1β; experiment: IL-1β cytokine challenge model, sGAG biosynthesis rate in human ankle cartilage explants; type: cell-based; settings: continuous 39.2 nM IGF-1; 10 ng/ml mouse IL-1β; FIG. 20

(+9GFP)-(EAAAK)3-(IGF-1): fusion protein of +9 GFP and human IGF-1 with rigid (EAAAK)3 linker, SEQ ID NO: 8
cumulative sGAG loss compared to the untreated control ([1]; single 2 μM dose): higher cumulative sGAG loss

(+9GFP)-(GGGGS)4-(IGF-1): fusion protein of +9 GFP and human IGF-1 with flexible (GGGGS)4 linker, SEQ ID NO: 7
Uptake ratio (Mean) ([2]; 36 hr): 12.7
Uptake ratio (Mean) ([2]; 108 hr): 18.3
cumulative sGAG loss compared to the untreated control ([1]; single 500 nM dose): higher cumulative sGAG loss

IGF-1: free recombinant human IGF-1 (PeproTech), pro-anabolic growth factor used as the positive control
cumulative sGAG loss to the medium compared to the untreated control ([1]; 7-day time point (FIG. 15C)): higher cumulative sGAG loss
rescue of the biosynthesis loss caused by IL-1 [3]: rescued; also recorded: could rescue
